According to patent publication US20020172990A1, “Cyclin dependent kinase 5 phosphorylation of disabled 1 protein” (priority 2002, published 2002):

System: Dab1 phosphorylation in embryonic neurons
Assay: Reelin stimulation of embryonic neurons, Dab1 immunoprecipitation and Western blot
Type: cell-based, mouse
Experimental: Stimulation of embryonic neurons with purified Reelin has been described previously (Keshvara et al., J Biol Chem 276:16008-16014, 2001). Briefly, neurons obtained by trituration of embryonic brains were treated either with purified recombinant Reelin or with a control supernatant for 15 minutes at 37° C. After incubation neurons were either snap frozen or lysed immediately. Reelin-treated neuronal pellets were lysed in cell lysis buffer (25 mM Tris-HCl, 1% Nonidet P-40, 150 mM NaCl, 5 mM EDTA, 1 mM sodium orthovanadate, 20 mM sodium fluoride, and 20 μg/ml each of aprotinin and leupeptin). Whole brains were also homogenized in this lysis buffer. Cell lysates as well as brain homogenates were clarified by centrifugation at 10,000× g at 4° C. for 20 min.
Cell or brain lysates were incubated with anti-Cdk5 or anti-Dab1 antibodies at 4° C. for 2 hr. Immune complexes were collected with protein G-agarose beads (Pierce) and washed three times with cell lysis buffer. Immunoprecipitates were boiled in SDS sample buffer, separated by SDS-PAGE, and blotted to nitrocellulose membranes. Nitrocellulose membranes were blocked with 5% non-fat dry milk in TBST (50 mM Tris, pH 7.4, 150 mM NaCl, 1% Tween 20) for 1 hr at room temperature. The following antibodies were used for various immunoblots: anti-PSer491 (1:1000), anti-Cdk5 (1:2000), anti-PY198 (1:100), 4G10 (1:2000) (Upstate Biotechnology, Lake Placid, N.Y.), and anti-Dab1 (CT38, 1:5000). All dilutions were made in blocking solution, and incubations were carried out at room temperature for one hour. The membranes were washed in TBST and incubated with horseradish peroxidase-conjugated secondary antibody (1:10,000) for 1 hr. Detection was carried out using Super Signal West Dura Extended Duration Substrate (Pierce).
Since the accumulation of hypophosphorylated Dab1 in Cdk5^−/− neurons implies that Reelin signaling is defective, we sought to determine whether the defect in Reelin signaling is intrinsic to Cdk5-deficient neurons or whether it arises as an indirect consequence of the ectopic location of these neurons. […]

Reelin: Large secreted glycoprotein; purified recombinant Reelin used to stimulate embryonic neurons
Tyrosine phosphorylation of Dab1 (neurons from E16.5 Cdk5-/- embryos, Reelin-enriched DMEM vs DMEM alone, 4G10 anti-phosphotyrosine blot): sharp increase in tyrosine phosphorylation of Dab1
Tyrosine phosphorylation of Dab1 (neurons from E16.5 reeler brains, exogenous Reelin 15 minutes at 37° C.): sharp increase in tyrosine phosphorylation of Dab1
Serine 491 phosphorylation of Dab1 (neurons from E16.5 reeler brains, exogenous Reelin 15 minutes at 37° C., anti-PSer491 blot): did not cause any noticeable change
